# Data reported in ChEMBL document CHEMBL3885881, “DrugMatrix”.
# Species on record: Rattus norvegicus
# Type: toxicity, organism-based, Sprague-Dawley
# Conditions: in vivo, po, route oral GAVAGE, […]; for ABSOLUTE EOSINOPHIL / ABSOLUTE LYMPHOCYTE / ABSOLUTE MONOCYTE / ABSOLUTE SEGMENTED NEUTROPHIL / BASOPHIL / EOSINOPHIL / ERYTHROCYTE COUNT / HEMATOCRIT / HEMOGLOBIN / LEUKOCYTE COUNT / LYMPHOCYTE / MEAN CORPUSCULAR HEMOGLOBIN / MEAN CORPUSCULAR HEMOGLOBIN CONCENTRATION / MEAN CORPUSCULAR VOLUME / MONOCYTE / NEUTROPHIL / NUCLEATED RED BLOOD CELLS / PLATELET COUNT: tissue Blood; for ALANINE AMINOTRANSFERASE / ALKALINE PHOSPHATASE / ASPARTATE AMINOTRANSFERASE / BLOOD UREA NITROGEN / CARBON DIOXIDE / CHLORIDE / CHOLESTEROL / CREATINE PHOSPHOKINASE / CREATININE / GLUCOSE / LACTATE DEHYDROGENASE / LIPASE / PHOSPHORUS / POTASSIUM / SODIUM / TOTAL BILIRUBIN / TOTAL PROTEIN / URIC ACID: tissue Plasma
# [1] = 0 mg/kg, 6 h, vehicle control, dose level Control, time 0.25 day
# [2] = 0 mg/kg, 24 h, vehicle control, dose level Control, time 1 day
# [3] = 100 mg/kg, 6 h, dose level Low, time 0.25 day
# Description: DrugMatrix - Regimen: Single
smiles,measurement,setting,value
Cc1ccc(C)c(OCCCC(C)(C)C(=O)O)c1 [GEMFIBROZIL],ABSOLUTE EOSINOPHIL,[1],0 CELLS/uL
same,ABSOLUTE LYMPHOCYTE,[1],8631 CELLS/uL
same,ABSOLUTE MONOCYTE,[1],171.17 CELLS/uL
same,ABSOLUTE SEGMENTED NEUTROPHIL,[1],1214.5 CELLS/uL
same,BASOPHIL,[1],0%
same,EOSINOPHIL,[1],0%
same,ERYTHROCYTE COUNT,[1],5.42 x10E6/uL
same,HEMATOCRIT,[1],34.7%
same,HEMOGLOBIN,[1],13.67 G/DL
same,LEUKOCYTE COUNT,[1],10.02 x10E3/uL
same,LYMPHOCYTE,[1],86.17%
same,MEAN CORPUSCULAR HEMOGLOBIN,[1],25.27 pg
same,MEAN CORPUSCULAR HEMOGLOBIN CONCENTRATION,[1],39.42 G/DL
same,MEAN CORPUSCULAR VOLUME,[1],64.12 fL
same,MONOCYTE,[1],1.67%
same,NEUTROPHIL,[1],12.17%
same,NUCLEATED RED BLOOD CELLS,[1],0 /100WBC
same,PLATELET COUNT,[1],1050 x10E3/uL
same,ALANINE AMINOTRANSFERASE,[1],61 u/L
same,ALKALINE PHOSPHATASE,[1],312.5 u/L
same,ASPARTATE AMINOTRANSFERASE,[1],117.5 u/L
same,BLOOD UREA NITROGEN,[1],8.67 mg/dL
same,CARBON DIOXIDE,[1],26.33 mmol/L
same,CHLORIDE,[1],100.5 MEQ/L
same,CHOLESTEROL,[1],72 mg/dL
same,CREATINE PHOSPHOKINASE,[1],283.33 u/L
same,CREATININE,[1],0.28 mg/dL
same,GLUCOSE,[1],172 mg/dL
same,LACTATE DEHYDROGENASE,[1],95.33 u/L
same,LIPASE,[1],10.17 u/L
same,PHOSPHORUS,[1],9.9 mg/dL
same,POTASSIUM,[1],5.75 MEQ/L
same,SODIUM,[1],142.4 MEQ/L
same,TOTAL BILIRUBIN,[1],0.3 mg/dL
same,TOTAL PROTEIN,[1],5.43 G/DL
same,URIC ACID,[1],0.73 mg/dL
same,ABSOLUTE EOSINOPHIL,[2],90.83 CELLS/uL
same,ABSOLUTE LYMPHOCYTE,[2],14725.17 CELLS/uL
same,ABSOLUTE MONOCYTE,[2],220 CELLS/uL
same,ABSOLUTE SEGMENTED NEUTROPHIL,[2],1080.67 CELLS/uL
same,BASOPHIL,[2],0%
same,EOSINOPHIL,[2],0.67%
same,ERYTHROCYTE COUNT,[2],5.3 x10E6/uL
same,HEMATOCRIT,[2],33.4%
same,HEMOGLOBIN,[2],13.4 G/DL
same,LEUKOCYTE COUNT,[2],16.12 x10E3/uL
same,LYMPHOCYTE,[2],91.17%
same,MEAN CORPUSCULAR HEMOGLOBIN,[2],25.3 pg
same,MEAN CORPUSCULAR HEMOGLOBIN CONCENTRATION,[2],40.12 G/DL
same,MEAN CORPUSCULAR VOLUME,[2],63.05 fL
same,MONOCYTE,[2],1.5%
same,NEUTROPHIL,[2],6.67%
same,NUCLEATED RED BLOOD CELLS,[2],0 /100WBC
same,PLATELET COUNT,[2],1062 x10E3/uL
same,ALANINE AMINOTRANSFERASE,[2],69 u/L
same,ALKALINE PHOSPHATASE,[2],269 u/L
same,ASPARTATE AMINOTRANSFERASE,[2],83.67 u/L
same,BLOOD UREA NITROGEN,[2],14 mg/dL
same,CARBON DIOXIDE,[2],29 mmol/L
same,CHLORIDE,[2],100.83 MEQ/L
same,CHOLESTEROL,[2],66.67 mg/dL
same,CREATINE PHOSPHOKINASE,[2],355 u/L
same,CREATININE,[2],0.18 mg/dL
same,GLUCOSE,[2],161.33 mg/dL
same,LACTATE DEHYDROGENASE,[2],123.33 u/L
same,LIPASE,[2],10.67 u/L
same,PHOSPHORUS,[2],8.83 mg/dL
same,POTASSIUM,[2],6.06 MEQ/L
same,SODIUM,[2],142.45 MEQ/L
same,TOTAL BILIRUBIN,[2],0.2 mg/dL
same,TOTAL PROTEIN,[2],5.72 G/DL
same,URIC ACID,[2],1.27 mg/dL
same,ABSOLUTE EOSINOPHIL,[3],97 CELLS/uL
same,ABSOLUTE LYMPHOCYTE,[3],13743.17 CELLS/uL
same,ABSOLUTE MONOCYTE,[3],354.83 CELLS/uL
same,ABSOLUTE SEGMENTED NEUTROPHIL,[3],1355 CELLS/uL
same,BASOPHIL,[3],0%
same,EOSINOPHIL,[3],0.67%
same,ERYTHROCYTE COUNT,[3],5.46 x10E6/uL
same,HEMATOCRIT,[3],35.92%
same,HEMOGLOBIN,[3],13.93 G/DL
same,LEUKOCYTE COUNT,[3],15.55 x10E3/uL
same,LYMPHOCYTE,[3],88.33%
same,MEAN CORPUSCULAR HEMOGLOBIN,[3],25.62 pg
same,MEAN CORPUSCULAR HEMOGLOBIN CONCENTRATION,[3],38.85 G/DL
same,MEAN CORPUSCULAR VOLUME,[3],65.98 fL
same,MONOCYTE,[3],2.17%
same,NEUTROPHIL,[3],8.83%
same,NUCLEATED RED BLOOD CELLS,[3],0 /100WBC
same,PLATELET COUNT,[3],1082.83 x10E3/uL
same,ALANINE AMINOTRANSFERASE,[3],47.5 u/L
same,ALKALINE PHOSPHATASE,[3],284.67 u/L
same,ASPARTATE AMINOTRANSFERASE,[3],80.83 u/L
same,BLOOD UREA NITROGEN,[3],8 mg/dL
same,CARBON DIOXIDE,[3],26.67 mmol/L
same,CHLORIDE,[3],100.17 MEQ/L
same,CHOLESTEROL,[3],76 mg/dL
same,CREATINE PHOSPHOKINASE,[3],275.33 u/L
same,CREATININE,[3],0.13 mg/dL
same,GLUCOSE,[3],141.33 mg/dL
same,LACTATE DEHYDROGENASE,[3],112.33 u/L
same,LIPASE,[3],11 u/L
same,PHOSPHORUS,[3],11.7 mg/dL
same,POTASSIUM,[3],6.32 MEQ/L
same,SODIUM,[3],141.92 MEQ/L
same,TOTAL BILIRUBIN,[3],0.37 mg/dL
same,TOTAL PROTEIN,[3],5.85 G/DL
same,URIC ACID,[3],1.2 mg/dL
